# Results from US20190321496A1, “AGENTS AND METHODS FOR THE DIAGNOSIS AND TREATMENT OF DISEASES ASSOCIATED WITH EXTRACELLULAR MATRIX TURNOVER” (Baker IDI Heart and Diabetes Institute Holdings Limited, priority 2016, published 2019).
# Tests used:
# [1] = test system: unstable plaques; test: In vivo treatment of tandem stenosis mice, plaque collagen quantification (Picrosirius Red); parameters: species or system mouse; conditions: tandem stenosis ApoE knock out mice, 2 tail vein injections 2 weeks apart, killed 2 weeks after second dose, PBS 14.40±4.522
# Protocol: As described elsewhere herein, at 12 weeks of age and 6 weeks after commencement of high fat diet, ApoE−/− mice (C57BL/6J background) were anaesthetized by intraperitoneal injection of a mixture of ketamine (100 mg/kg) and xylazine (10 mg/kg). An incision was made in the neck and the right common carotid artery exposed by dissecting away circumferential connective tissue. A tandem stenosis with 150 μm outer diameter was introduced with the distal stenosis placed 1 mm from the carotid artery bifurcation and the proximal stenosis 3 mm from the distal stenosis. A 6-0 blue braided polyester fibre suture was tied around the carotid artery and a 150 μm needle to achieve the stenosis diameter of 150 μm and the needle was subsequently removed after the suture was secured. The incision wound was sutured close and the mice resumed their high fat diet. […]
# Collagen quantification of the Picrosirius Red slides were performed using Image J software (National Institute of Health USA). […] For each section, the quantity of plaque collagen is expressed as the percentage of collagen within the plaque: […]
# All quantitative data was analysed by PRISM 6 (GraphPad Software Inc.) and reported as mean +/− one standard deviation. […] Unpaired t test with Welch's correction was also used to analyse the collagen quantification data for the mouse in vivo treatment experiments. […]
# [2] = test system: MMP14; test: Assay of MMP14 activity (FRET peptide) in HT1080 cells treated with Naphthofluorescein; assay type: cell-based, human; conditions: n=3, untreated cells 473.7±20.93
# Protocol: Detection of Cy 3.5 signals of the MMP14 FRET peptide was performed using the FLUOstar OPTIMA BMG LABTECH 96 microplate fluorescence reader standardized for optic settings of excitation 544 nm and emission 590 nm, temperature settings at 37° C., with readings taken every 10 minutes over a 120 minute duration and double orbital shaking at a width of 4 mm 1 second prior to each cycle. All confocal live cell studies were performed using the Nikon Air inverted microscope (Tokyo, Japan) with live cell imaging chamber (designed by Monash Micro imaging). Tissue sections were obtained by cryo-sectioning frozen tissue using the Leica CM1950 cryostat (Leica Microsystems, Germany).
# A peptide sequence that is preferentially cleaved by MMP14 was used to create a FRET probe with N terminal Cy3.5 and C terminal BHQ (Black Hole Quencher): Cy3.5 SGRIGFLRTACBHQ2 (SEQ ID NO:13). The presence of MMP14 activity cleaves this peptide and separates the Cy3.5 from BHQ. […] The cells were centrifuged at 4000 rcf for 5 minutes, cell pellet was resuspended in PBS containing calcium and magnesium and counted using a haemocytometer. […] The 96 well microplate was incubated at 37° C. inside the FluorSTAR Optima fluorescent microplate reader for 2 hours while Cy 3.5 signal readings in the (Ex544, Em590) channel were taken every 10 minutes. […] The readings were plotted as bar charts in Prism software. […]
structure (smiles),measurement,setting,value
O=C1OC2(c3ccccc31)c1ccc3cc(O)ccc3c1Oc1c2ccc2cc(O)ccc12 [Naphthofluorescein],collagen percentage of the plaque area,[1],18.87+5.308 percentage of the plaque area
same,Cy3.5 increase (MMP14 FRET peptide),"[2]; HT1080 cells treated with 20 μM unaltered free Naphthofluorescein for 1 week, time zero to 120 minutes",125.0±17.04
same,"Cy3.5 increase (MMP14 FRET peptide), pH 5 rendered drug","[2]; HT1080 cells, Naphthofluorescein pre-treated in HCl solution at pH 5 for 30 minutes then neutralised with NaOH",126.7±2.728
